From patent publication US11739074B2, “Ras inhibitors” (Revolution Medicines, Inc., priority 2019, dated 2023)
pEC50, pIC50: −log10 of the molar value. Like-named read-outs stand apart in the source and are kept apart here.

Key:
[1] = biological target: KRAS G13D (Homo sapiens, UniProt P01116+P62937, G13D); test: Ras-Raf disruption/FRET/MOA assay, KRAS G13D; assay type: biochemical
Text: (§1) Disruption of B-Raf Ras-Binding Domain (BRAF^RBD) Interaction with K-Ras by Compounds of the Invention (Also Called a FRET Assay or an MOA Assay)
(§2) Note—The following protocol describes a procedure for monitoring disruption of K-Ras G12C (GMP-PNP) binding to BRAF^RBD by a compound of the invention. This protocol may also be executed substituting other Ras proteins or nucleotides, such as K-Ras G12D and K-Ras G13D.
(§3) The purpose of this biochemical assay was to measure the ability of test compounds to facilitate ternary complex formation between a nucleotide-loaded K-Ras isoform and Cyclophilin A; the resulting ternary complex disrupts binding to a BRAF^RBD construct, inhibiting K-Ras signaling through a RAF effector.
(§4) In assay buffer containing 25 mM HEPES pH 7.3, 0.002% Tween20, 0.1% BSA, 100 mM NaCl and 5 mM MgCl2, tagless Cyclophilin A, His6-K-Ras-GMPPNP, and GST-BRAF^RBD were combined in a 384-well assay plate at final concentrations of 25 μM, 12.5 nM, and 50 nM, respectively. Compound was present in plate wells as a 10-point 3-fold dilution series starting at a final concentration of 30 μM. After incubation at 25° C. for 3 hours, a mixture of anti-His Eu-W1024 and anti-GST allophycocyanin was then added to assay sample wells at final concentrations of 10 nM and 50 nM, respectively, and the reaction incubated for an additional 1.5 hours. […] Compounds that facilitate disruption of a K-Ras:RAF complex were identified as those eliciting a decrease in the TR-FRET ratio relative to DMSO control wells.

[2] = biological target: KRAS G12S (Homo sapiens, UniProt P01116+P62937, G12S); test: Ras-Raf disruption/FRET/MOA assay, KRAS G12S; assay type: biochemical
Chain of KRAS G12S (P01116 1-169 isoform P01116-2 G12S limits assumed): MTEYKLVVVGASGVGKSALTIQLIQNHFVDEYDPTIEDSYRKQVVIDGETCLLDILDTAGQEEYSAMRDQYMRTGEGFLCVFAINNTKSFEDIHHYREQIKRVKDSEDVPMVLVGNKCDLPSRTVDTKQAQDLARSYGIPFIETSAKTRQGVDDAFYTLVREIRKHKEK
Chain of KRAS G12S (P62937 whole entry): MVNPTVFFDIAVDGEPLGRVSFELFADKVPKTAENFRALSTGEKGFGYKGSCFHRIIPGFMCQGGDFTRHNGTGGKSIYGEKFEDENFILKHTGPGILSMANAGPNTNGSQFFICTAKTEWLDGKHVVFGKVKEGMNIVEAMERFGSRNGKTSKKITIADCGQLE
Text: as §1, §2, §3, §4

[3] = biological target: KRAS G12D (Homo sapiens, UniProt P01116+P62937, G12D); test: Ras-Raf disruption/FRET/MOA assay, KRAS G12D; assay type: biochemical
Chain of KRAS G12D (P01116 1-169 isoform P01116-2 G12D limits assumed): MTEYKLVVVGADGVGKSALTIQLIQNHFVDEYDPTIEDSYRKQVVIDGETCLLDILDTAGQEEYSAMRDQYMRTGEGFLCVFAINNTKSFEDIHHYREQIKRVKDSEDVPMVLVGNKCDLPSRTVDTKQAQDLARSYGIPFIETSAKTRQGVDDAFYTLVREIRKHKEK
Chain of KRAS G12D (P62937 whole entry): as the sequence (P62937 whole entry) above
Text: as §1, §2, §3, §4

[4] = biological target: KRAS WT (Homo sapiens, UniProt P01116+P62937); test: Ras-Raf disruption/FRET/MOA assay, KRAS WT; assay type: biochemical
Chain of KRAS WT (P01116 1-169 isoform P01116-2 limits assumed): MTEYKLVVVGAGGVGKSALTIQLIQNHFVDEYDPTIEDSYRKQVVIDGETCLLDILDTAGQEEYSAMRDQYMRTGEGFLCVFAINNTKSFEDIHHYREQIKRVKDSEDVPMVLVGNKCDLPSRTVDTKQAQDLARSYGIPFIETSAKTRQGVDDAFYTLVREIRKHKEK
Chain of KRAS WT (P62937 whole entry): as the sequence (P62937 whole entry) above
Text: as §1, §2, §3, §4

[5] = biological target: KRAS G12C (Homo sapiens, UniProt P01116+P62937, G12C); test: Ras-Raf disruption/FRET/MOA assay, KRAS G12C; assay type: biochemical
Chain of KRAS G12C (P01116 1-169 isoform P01116-2 G12C limits assumed): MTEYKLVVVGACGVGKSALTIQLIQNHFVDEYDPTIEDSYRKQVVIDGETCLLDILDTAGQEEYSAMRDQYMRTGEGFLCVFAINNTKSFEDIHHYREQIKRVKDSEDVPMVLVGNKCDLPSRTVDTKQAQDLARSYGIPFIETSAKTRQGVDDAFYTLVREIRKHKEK
Chain of KRAS G12C (P62937 whole entry): as the sequence (P62937 whole entry) above
Text: as §1, §2, §3, §4

[6] = test system: AsPC-1 (K-Ras G12D); test: Potency assay: pERK in AsPC-1 cells; assay type: cell-based; conditions: Homo sapiens
[7] = test system: AsPC-1 (K-Ras G12D); test: CellTiter-Glo cell viability assay, AsPC-1; assay type: cell-based; conditions: Homo sapiens, ASPC1, 120 h
In short: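 Luminescent viability readout on day 5, plates first brought to room temperature for ~30 min; compounds added straight to plated RAS-mutant cells. Values expressed as percent of mean DMSO signal, curves fitted with a four-parameter logistic model.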

[8] = biological target: KRAS G13C (Homo sapiens, UniProt P01116+P62937, G13C); test: Ras-Raf disruption/FRET/MOA assay, KRAS G13C; assay type: biochemical
Chain of KRAS G13C (P01116 1-169 isoform P01116-2 G13C limits assumed): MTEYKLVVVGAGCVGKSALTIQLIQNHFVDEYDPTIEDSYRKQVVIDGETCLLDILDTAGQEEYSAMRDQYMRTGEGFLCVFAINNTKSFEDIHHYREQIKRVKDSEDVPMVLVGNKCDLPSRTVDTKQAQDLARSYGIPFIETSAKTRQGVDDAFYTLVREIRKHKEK
Chain of KRAS G13C (P62937 whole entry): as the sequence (P62937 whole entry) above
Text: as §1, §2, §3, §4

[9] = biological target: T1, NRAS G12C (Homo sapiens, UniProt P01111+P62937, G12C); test: Ras-Raf disruption/FRET/MOA assay, NRAS G12C; assay type: biochemical
T1 construct: His6
T1 sequence (P01111 whole entry G12C): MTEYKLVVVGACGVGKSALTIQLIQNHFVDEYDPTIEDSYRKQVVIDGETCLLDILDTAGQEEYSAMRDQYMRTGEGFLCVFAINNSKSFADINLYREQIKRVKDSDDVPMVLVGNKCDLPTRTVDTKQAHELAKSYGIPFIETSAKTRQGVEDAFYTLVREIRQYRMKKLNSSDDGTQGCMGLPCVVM
T1 sequence (P62937 whole entry): as the sequence (P62937 whole entry) above
Text: as §1, §2, §3, §4

[10] = biological target: KRAS G12V (Homo sapiens, UniProt P01116+P62937, G12V); test: Ras-Raf disruption/FRET/MOA assay, KRAS G12V; assay type: biochemical
Chain of KRAS G12V (P01116 1-169 isoform P01116-2 G12V limits assumed): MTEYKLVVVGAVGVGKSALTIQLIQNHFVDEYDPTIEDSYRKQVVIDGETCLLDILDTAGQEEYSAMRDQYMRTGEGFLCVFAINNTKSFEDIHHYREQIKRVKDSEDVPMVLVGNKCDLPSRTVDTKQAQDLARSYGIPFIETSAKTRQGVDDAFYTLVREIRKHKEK
Chain of KRAS G12V (P62937 whole entry): as the sequence (P62937 whole entry) above
Text: as §1, §2, §3, §4

[11] = disruption of BRAF RBD binding, with Cyclophilin A, read-out: KRAS G13D FRET IC50
[12] = disruption of BRAF RBD binding, with Cyclophilin A, read-out: KRAS G12S FRET IC50
[13] = disruption of BRAF RBD binding, with Cyclophilin A, read-out: KRAS G12D FRET IC50
[14] = disruption of BRAF RBD binding, with Cyclophilin A, read-out: KRAS WT FRET IC50
[15] = disruption of BRAF RBD binding, with Cyclophilin A, read-out: KRAS G12C FRET IC50
[16] = AsPC-1, K-Ras G12D, 5-day treatment, read-out: AsPC-1 Cell Viability IC50
[17] = disruption of BRAF RBD binding, with Cyclophilin A, read-out: KRAS G13C FRET IC50
[18] = NRAS G12C, read-out: NRAS G12C FRET data IC50
[19] = disruption of BRAF RBD binding, with Cyclophilin A, read-out: KRAS G12V FRET IC50
[20] = ASPC1, read-out: pERK EC50 (AsPC-1 KRAS G12D)
[21] = read-out: AsPC-1 Cell Viability IC50, AsPC-1, K-Ras G12D, 5-day treatment
[22] = NRAS G12C FRET data IC50, NRAS G12C

Chain of KRAS G13D (P01116 1-169 isoform P01116-2 G13D limits assumed): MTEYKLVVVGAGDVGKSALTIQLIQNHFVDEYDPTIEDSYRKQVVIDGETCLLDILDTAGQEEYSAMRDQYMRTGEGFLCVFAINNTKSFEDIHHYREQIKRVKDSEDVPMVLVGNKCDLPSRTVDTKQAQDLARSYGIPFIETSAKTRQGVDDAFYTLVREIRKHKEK
Chain of KRAS G13D (P62937 whole entry, the tested form may be a part): as the sequence (P62937 whole entry) above

Row | Structure (SMILES) | pIC50 [1, 11] | pIC50 [2, 12] | pIC50 [3, 13] | pIC50 [4, 14] | pIC50 [5, 15] | pIC50 [7, 16] | pIC50 [8, 17] | pIC50 [9, 18] | pIC50 [10, 19] | pEC50 [6, 20] | pIC50 [1] | pIC50 [2] | pIC50 [3] | pIC50 [4] | pIC50 [5] | pIC50 [7, 21] | pIC50 [8] | pIC50 [9, 22] | pIC50 [10] | also measured
1 | CCn1c(-c2cnccc2COC)c2c3cc(ccc31)-c1cc(O)cc(c1)C[C@H](NC(=O)[C@H](C(C)C)N(C)C(=O)[C@H]1CCN(C(=O)N3C[C@@H]3C(=O)OC)C1)C(=O)N1CCC[C@H](N1)C(=O)OCC(C)(C)C2 [Compound 94] | 6.00 to 7.00 | 6.00 to 7.00 | 5.00 to 6.00 | 6.00 to 7.00 | 7.00 to 8.00 | < 5.00 | 7.00 to 8.00 | 6.00 to 7.00 | 6.00 to 7.00 |  |  |  |  |  |  |  |  |  |  | pEC50 ([6]; ASPC1, AsPC-1 cells, K-Ras G12D, read-out: pERK EC50 (AsPC-1 KRAS G12D)): > 5.30
2 | CCn1c(-c2cnccc2COC)c2c3cc(ccc31)-c1cc(O)cc(c1)C[C@H](NC(=O)[C@H](C(C)C)N(C)C(=O)CN(C)C(=O)[C@@H]1[C@H](C3CC3)N1[S@@+]([O-])C(C)(C)C)C(=O)N1CCC[C@H](N1)C(=O)OCC(C)(C)C2 (stereo partly shown) [Compound 101] | 6.00 to 7.00 | 6.00 to 7.00 | 6.00 to 7.00 | 6.00 to 7.00 | 7.00 to 8.00 |  | 6.00 to 7.00 | 7.00 to 8.00 | 6.00 to 7.00 | > 5.30 |  |  |  |  |  |  |  |  |  | pIC50 ([7]; read-out: AsPC-1 Cell Viability IC50): 5.00 to 6.00
3 | CCn1c(-c2cnccc2COC)c2c3cc(ccc31)-c1cc(O)cc(c1)C[C@H](NC(=O)[C@H](C(C)C)N(C)C(=O)CN(C)C(=O)[C@@H]1N[C@@H]1c1ccccc1)C(=O)N1CCC[C@H](N1)C(=O)OCC(C)(C)C2 [Compound 110] |  |  |  |  |  |  |  |  |  | > 5.30 | 6.00 to 7.00 | 7.00 to 8.00 | 6.00 to 7.00 | 7.00 to 8.00 | 7.00 to 8.00 | 5.00 to 6.00 | 6.00 to 7.00 | 7.00 to 8.00 | 6.00 to 7.00 | 
4 | CCn1c(-c2cccnc2[C@H](C)OC)c2c3cc(ccc31)-c1cc(O)cc(c1)C[C@H](NC(=O)[C@H](C(C)C)N(C)C(=O)CN(C)C(=O)[C@H]1N[C@H]1C1CC1)C(=O)N1CCC[C@H](N1)C(=O)OCC(C)(C)C2 [Compound 134] |  |  |  |  |  |  |  |  |  | > 5.30 | 6.00 to 7.00 | 7.00 to 8.00 | 6.00 to 7.00 | 7.00 to 8.00 | 7.00 to 8.00 | 5.00 to 6.00 | 7.00 to 8.00 | 7.00 to 8.00 | 6.00 to 7.00 | 
5 | CCn1c(-c2cccnc2[C@H](C)OC)c2c3cc(ccc31)-c1cc(O)cc(c1)C[C@H](NC(=O)[C@H](C(C)C)N1CCC3(CCN(C(=O)[C@@H]4CN4)CC3)C1=O)C(=O)N1CCC[C@H](N1)C(=O)OCC(C)(C)C2 [Compound 195] | 7.00 to 8.00 | 6.00 to 7.00 | 5.00 to 6.00 | 7.00 to 8.00 | 7.00 to 8.00 | < 5.00 | > 8.00 | 7.00 to 8.00 | 6.00 to 7.00 |  |  |  |  |  |  |  |  |  |  | 
6 | CCn1c(-c2cnccc2COC)c2c3cc(ccc31)-c1cc(O)cc(c1)C[C@H](NC(=O)[C@H](C(C)C)N(C)C(=O)CN1C(=O)[C@@H]3[C@H](C1=O)N3Cc1ccccc1)C(=O)N1CCC[C@H](N1)C(=O)OCC(C)(C)C2 (stereo partly drawn) [Example 55, (2S)-2-(2-((1R,5S)-6-benzyl-2,4-dioxo-3,6-diazabicyclo[3.1.0]hexan-3-yl)-N-methylacetamido)-N-((6^3S,4S)-1^1-ethyl-2^5-hydroxy-1^2-(4-(methoxymethyl)pyridin-3-yl)-10,10-dimethyl-5,7-dioxo-6^1,6^2,6^3,6^4,6^5,6^6-hexahydro-1^1H-8-oxa-1(5,3)-indola-6(1,3)-pyridazina-2(1,3)-benzenacycloundecaphane-4-yl)-3-methylbutanamide] | 5.00 to 6.00 | 6.00 to 7.00 | < 5.00 | 5.00 to 6.00 | 6.00 to 7.00 | < 5.00 | 6.00 to 7.00 | 6.00 to 7.00 | 6.00 to 7.00 |  |  |  |  |  |  |  |  |  |  | 
